Laboratory results published in patent US20250090437A1, “COSMETIC COMPOUNDING AGENT, COSMETIC AND PRODUCTION METHOD THEREOF” (MIYOSHI OIL & FAT CO., LTD., priority 2019, published 2025).

Tests used:
[1] = Water retention property test 1; format: physicochemical; details: 80 wt % aqueous solution
Protocol: A moisture rate after 24 hours was again measured (post-test moisture rate: B), followed by using the formula below to calculate a rate of reduction in moisture so as to evaluate the water retention property. • Pre-test moisture rate: A (%) • Post-test moisture rate: B (%)

[2] = Water retention property test 2 (hydrates); format: physicochemical; details: hydrate (anhydrides: aqueous solution at mono- to trihydrate concentration); for Pre-test moisture rate: before the test; for Post-test moisture rate / Rate of reduction in moisture: unsealed, 24 hours at 40° C. and 25% RH
Protocol: (2) Water retention property test 2 The water retention property of the hydrate of each compound was evaluated. Hydrates were used in the cases of the compounds C1 to C38, C40 to C49 and C56 to C59; however, since the compounds C39 and C62 to C64 were anhydrides, there were used aqueous solutions prepared by adding water so that a concentration would be that of monohydrate to trihydrate. The moisture rate of the sample(s) was confirmed using a Karl Fischer moisture meter (pre-test moisture rate: A). Next, 1.0 g of each of these samples was added to a screw tube, and this screw tube, while remaining unsealed, was then left to stand still for 24 hours in a thermo-hygrostat set to 40° C. and 25% RH. A moisture rate after 24 hours was again measured (post-test moisture rate: B), followed by calculating a rate of reduction in moisture in a similar manner as above so as to evaluate the water retention property. Here, a comparative evaluation was performed on each hydrate of the compounds C1 to C38, C40 to C49 and C56 to C59 together with an aqueous solution(s) of the compound C39 having a concentration(s) corresponding to the numbers of these hydration waters.
(monohydrates in compounds C1 to C38, C40 to C49 and C56 to C59 of working examples C62 to C99, C103 to C116 with compound C39 of working example C100, compound C62 of comparative example C4, compound C63 of comparative example C7 and compound C64 of comparative example C10)
(dihydrates in compounds C1 to C38, C40 to C49 and C56 to C59 of working examples C62 to C99, C103 to C116 with compound C39 of working example C101, compound C62 of comparative example C5, compound C63 of comparative example C8 and compound C64 of comparative example C11)
(trihydrates in compounds C1 to C38, C40 to C49 and C56 to C59 of working examples C62 to C99, C103 to C116 with compound C39 of working example C102, compound C62 of comparative example C6, compound C63 of comparative example C9 and compound C64 of comparative example C12)

[3] = unsealed, 24 hours at 40° C. and 25% RH

| Compound | Water retention property test 1 Pre-test moisture rate [1] | Water retention property test 1 Post-test moisture rate ([1]; 24 hours at 40° C. and 25% RH) [%] | Water retention property test 1 Rate of reduction in moisture ([1]; 24 hours at 40° C. and 25% RH) [%] | Pre-test moisture rate [2] [%] | Post-test moisture rate [2] [%] | Rate of reduction in moisture [2] [%] | other results |
| --- | --- | --- | --- | --- | --- | --- | --- |
| CC(O)C(=O)O.NCCO (stereo not drawn) [Compound C1] | 20.0% | 19.3 | 3.5 | – | – | – | – |
| CC(O)C(=O)O.OCCNCCO [Compound C2] | 20.0% | 19.0 | 4.8 | – | – | – | – |
| NC(CO)(CO)CO.O=C(O)CC(O)(CC(=O)O)C(=O)O [Compound C21] | 20.0% 20.0% | 19.0 | 5.1 | – | – | – | – |
| CS(=O)(=O)O.NC(CO)(CO)CO [Compound C22] | 20.0% | 19.8 | 1.2 | – | – | – | – |
| CC(O)C(=O)O.N (stereo not drawn) [Compound C24] | 20.0% | 19.0 | 4.9 | – | – | – | – |
| CC(O)C(=O)[O-].CCC(CO)(CO)[N+](CC(O)CO)(CC(O)CO)CC(O)CO (stereo not drawn) [Compound C25] | 20.0% | 19.0 | 5.0 | – | – | – | – |
| CC(O)C(=O)[O-].OCC[N+](CCO)(CCO)CCO [Compound C26] | 20.0% | 19.0 | 5.0 | – | – | – | – |
| CC(=O)[O-].C[N+](C)(C)CCO [Compound C27] | 20.0% | 19.0 | 5.0 | – | – | – | – |
| C[N+](C)(C)CCO.O=C([O-])CO [Compound C28] | 20.0% | 19.4 | 3.0 | – | – | – | – |
| C[N+](C)(C)CCO.O=C([O-])C=CC(=O)O [Compound C30] | 20.0% | 19.0 | 5.5 | – | – | – | – |
| C[N+](C)(C)CCO.O=C([O-])CCC(=O)O [Compound C31] | 20.0% | 19.0 | 5.5 | – | – | – | – |
| CS(=O)(=O)[O-].C[N+](C)(C)CCO [Compound C32] | 20.0% | 19.6 | 2.2 | – | – | – | – |
| C[N+](C)(C)CCO.O=P([O-])(O)O [Compound C33] | 20.0% | 19.4 | 3.0 | – | – | – | – |
| C[N+](C)(C)CCO.O=[PH2][O-] [Compound C34] | 20.0% | 19.4 | 3.0 | – | – | – | – |
| CC[N+](C)(C)CCO.CS(=O)(=O)[O-] [Compound C36] | 20.0% | 19.6 | 2.0 | – | – | – | – |
| C[N+](C)(CCO)CC(O)CO.[Cl-] (stereo not drawn) [Compound C37] | 20.0% | 18.3 | 8.3 | – | – | – | – |
| C[N+](C)(CCO)CC(O)C[N+](C)(C)CCO.[Cl-].[Cl-] [Compound C38] | 20.0% | 18.1 | 9.5 | – | – | – | – |
| NCCO.O=C1OC(C(O)CO)C(O)=C1O (stereo not drawn) [Compound C40] | 20.0% | 19.5 | 2.3 | – | – | – | – |
| O=C1OC(C(O)CO)C(O)=C1O.OCCNCCO (stereo not drawn) [Compound C41] | 20.0% | 19.2 | 4.1 | – | – | – | – |
| O=C1OC(C(O)CO)C(O)=C1O.OCCN(CCO)CCO (stereo not drawn) [Compound C42] | 20.0% | 19.1 | 4.4 | – | – | – | – |

| Compound | Water retention property test 1 Pre-test moisture rate [1] | Water retention property test 1 Post-test moisture rate ([1]; 24 hours at 40° C. and 25% RH) [%] | Water retention property test 1 Rate of reduction in moisture ([1]; 24 hours at 40° C. and 25% RH) [%] | Pre-test moisture rate [2] [%] | Post-test moisture rate [2] [%] | Rate of reduction in moisture [2] [%] | other results |
| --- | --- | --- | --- | --- | --- | --- | --- |
| CC(C)(C)CO [Compound C44] | 20.0% | 19.2 | 4.7 | – | – | – | – |
| CC(CO)CO [Compound C45] | 20.0% | 19.5 | 2.5 | – | – | – | – |
| CCC(C)(CO)CO [Compound C48] | 20.0% | 19.4 | 2.9 | – | – | – | – |
| CCC(O)C(O)C(O)C(O)CO (stereo not drawn) [Compound C56] | – | – | – | – | – | – | Pre-test moisture rate ([1]; before the test (Karl Fischer)): 20.0%; Post-test moisture rate [1, 3]: 19.7%; Rate of reduction in moisture [1, 3]: 1.7% |
| CC[N+](C)(C)CCO.CS(=O)(=O)[O-] [Working example C97] | – | – | – | 7.8 | 7.7 | 1.9 | – |
| C[N+](C)(CCO)CC(O)CO.[Cl-] (stereo not drawn) [Working example C98] | – | – | – | 15.3 | 14.0 | 8.7 | – |
| C[N+](C)(CCO)CC(O)C[N+](C)(C)CCO.[Cl-].[Cl-] [Working example C99] | – | – | – | 10.5 | 9.4 | 10.2 | – |
| CC(O)C(=O)[O-].CCCC[N+](CCCC)(CCCC)CCCC [Working example C100] | – | – | – | 5.2 | 4.9 | 6.4 | – |
| CC(O)C(=O)[O-].CCCC[N+](CCCC)(CCCC)CCCC [Working example C102] | – | – | – | 14.0 | 12.3 | 12.0 | – |
| NCCO.O=C1O[C@H]([C@@H](O)CO)C(O)=C1O [Working example C103] | – | – | – | 13.2 | 13.0 | 1.5 | – |
| CCC(N)(CO)CO.O=C1O[C@H]([C@@H](O)CO)C(O)=C1O [Working example C107] | – | – | – | 10.9 | 10.6 | 2.8 | – |
| NC(CO)(CO)CO.O=C1OC(C(O)CO)C(O)=C1O (stereo not drawn) [Working example C108] | – | – | – | 10.8 | 10.5 | 2.8 | – |
| NCC(O)C(O)C(O)C(O)CO.O=C1OC(C(O)CO)C(O)=C1O (stereo not drawn) [Working example C109] | – | – | – | 9.2 | 9.1 | 1.1 | – |
| C[N+](C)(C)CCO.O=C1OC(C(O)CO)C([O-])=C1O (stereo not drawn) [Working example C110] | – | – | – | 11.4 | 11.2 | 1.8 | – |
| C[N+](C)(C)CC(O)CC(=O)O.O=C1O[C@H]([C@@H](O)CO)C([O-])=C1O [Working example C111] | – | – | – | 9.7 | 9.6 | 1.0 | – |
| CC(=O)OCC[N+](C)(C)C.O=C1O[C@H]([C@@H](O)CO)C([O-])=C1O [Working example C112] | – | – | – | 10.1 | 9.9 | 2.0 | – |
| CC(C)(N)CO.CC(O)C(=O)O [Working example C113] | – | – | – | 16.7 | 16.3 | 2.5 | – |
| CC(N)(CO)CO.CC(O)C(=O)O [Working example C114] | – | – | – | 15.6 | 15.2 | 2.8 | – |
| CC(C)(N)CO.O=C1OC(C(O)CO)C(O)=C1O (stereo not drawn) [Working example C115] | – | – | – | 12.0 | 11.7 | 2.9 | – |
| CC(N)(CO)CO.O=C1O[C@H]([C@@H](O)CO)C(O)=C1O [Working example C116] | – | – | – | 11.4 | 11.1 | 2.9 | – |
